Experimental data taken from PubChem BioAssay (NCI).
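GI50: concentration for 50% inhibition of growth. Definition used: TGI = concentration required for complete inhibition of growth.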

Assays:
Experiment in all cases: DTP human tumour cell line panel, 384-well format
[1] = system: A498 renal
[2] = system: ACHN renal
[3] = system: BT-549 breast
[4] = system: CAKI-1 renal
[5] = system: CCRF-CEM leukemia
[6] = system: COLO 205 colon
[7] = system: DU-145 prostate
[8] = system: EKVX NSCLC
[9] = system: HCC-2998 colon
[10] = system: HCT-15 colon
[11] = system: HL-60(TB) leukemia
[12] = system: HOP-62 NSCLC
[13] = system: HOP-92 NSCLC
[14] = system: HS 578T breast
[15] = system: HT29 colon
[16] = system: IGROV1 ovarian
[17] = system: KM12 colon
[18] = system: M14 melanoma
[19] = system: MALME-3M melanoma
[20] = system: MCF7 breast
[21] = system: MDA-MB-231 breast
[22] = system: MDA-MB-435 melanoma
[23] = system: MDA-MB-468 breast
[24] = system: MOLT-4 leukemia
[25] = system: NCI-H226 lung
[26] = system: NCI-H23 lung
[27] = system: NCI-H322M lung
[28] = system: NCI-H460 NSCLC
[29] = system: NCI-H522 lung
[30] = system: NCI/ADR-RES ovarian
[31] = system: OVCAR-3 ovarian
[32] = system: OVCAR-4 ovarian
[33] = system: OVCAR-5 ovarian
[34] = system: OVCAR-8 ovarian
[35] = system: PC-3 prostate
[36] = system: RPMI-8226 leukemia
[37] = system: RXF 393 renal
[38] = system: SF-268 CNS
[39] = system: SF-539 CNS
[40] = system: SK-MEL-2 melanoma
[41] = system: SK-MEL-28 melanoma
[42] = system: SK-MEL-5 melanoma
[43] = system: SK-OV-3 ovarian
[44] = system: SN12C renal
[45] = system: SNB-19 CNS
[46] = system: SNB-75 CNS
[47] = system: SR leukemia
[48] = system: SW-620 colon
[49] = system: T-47D breast
[50] = system: TK-10 renal
[51] = system: U251 glioblastoma
[52] = system: UACC-257 melanoma
[53] = system: UACC-62 melanoma

Work on `COc1ccc(N(C)c2nc(C)nc3ccccc23)cc1` yielded a GI50 [1] of under 10 nM, a TGI [1] of 35400 nM and a GI50 [2] of under 10 nM. For the same molecule, the TGI [2] was 11400 nM, the GI50 [3] was under 10 nM and the TGI [3] was under 10 nM. The GI50 [4] was under 10 nM, the TGI [4] was 288 nM and the GI50 [5] was under 10 nM. The TGI [5] was under 10 nM, the GI50 [6] was under 10 nM and the TGI [6] was under 10 nM. The GI50 [7] was under 10 nM, the TGI [7] was 32.8 nM and the GI50 [8] was under 10 nM. It also gave a TGI [8] of 25100 nM, a GI50 [9] of under 10 nM and a TGI [9] of under 10 nM. The GI50 [10] was under 10 nM, the TGI [10] was under 10 nM and the GI50 [11] was under 10 nM. For the same molecule, the TGI [11] was under 10 nM, the GI50 [12] was under 10 nM and the TGI [12] was 5640 nM. It also gave a GI50 [13] of under 10 nM, a TGI [13] of 13.1 nM and a GI50 [14] of under 10 nM. It also gave a TGI [14] of under 10 nM, a GI50 [15] of under 10 nM and a TGI [15] of 13000 nM. For the same molecule, the GI50 [16] was under 10 nM, the TGI [16] was over 100000 nM and the GI50 [17] was under 10 nM. The TGI [17] was 38400 nM, the GI50 [18] was under 10 nM and the TGI [18] was under 10 nM. It also gave a GI50 [19] of under 10 nM, a TGI [19] of under 10 nM and a GI50 [20] of under 10 nM. For the same molecule, the TGI [20] was 184 nM, the GI50 [21] was under 10 nM and the TGI [21] was 23900 nM. It also gave a GI50 [22] of under 10 nM, a TGI [22] of under 10 nM and a GI50 [23] of under 10 nM. For the same molecule, the TGI [23] was under 10 nM, the GI50 [24] was under 10 nM and the TGI [24] was under 10 nM. It also gave a GI50 [25] of under 10 nM, a TGI [25] of under 10 nM and a GI50 [26] of under 10 nM. The TGI [26] was under 10 nM, the GI50 [27] was under 10 nM and the TGI [27] was over 100000 nM. The GI50 [28] was under 10 nM, the TGI [28] was under 10 nM and the GI50 [29] was under 10 nM. The TGI [29] was under 10 nM, the GI50 [30] was under 10 nM and the TGI [30] was under 10 nM. It also gave a GI50 [31] of under 10 nM, a TGI [31] of under 10 nM and a GI50 [32] of under 10 nM. For the same molecule, the TGI [32] was 2080 nM, the GI50 [33] was under 10 nM and the TGI [33] was over 100000 nM. The GI50 [34] was under 10 nM, the TGI [34] was under 10 nM and the GI50 [35] was under 10 nM. The TGI [35] was under 10 nM, the GI50 [36] was under 10 nM and the TGI [36] was under 10 nM. For the same molecule, the GI50 [37] was under 10 nM, the TGI [37] was under 10 nM and the GI50 [38] was under 10 nM. For the same molecule, the TGI [38] was under 10 nM, the GI50 [39] was under 10 nM and the TGI [39] was under 10 nM. The GI50 [40] was under 10 nM, the TGI [40] was under 10 nM and the GI50 [41] was under 10 nM. The TGI [41] was under 10 nM, the GI50 [42] was under 10 nM and the TGI [42] was under 10 nM. For the same molecule, the GI50 [43] was under 10 nM, the TGI [43] was under 10 nM and the GI50 [44] was under 10 nM. It also gave a TGI [44] of 46000 nM, a GI50 [45] of under 10 nM and a TGI [45] of under 10 nM. For the same molecule, the GI50 [46] was under 10 nM, the TGI [46] was under 10 nM and the GI50 [47] was under 10 nM. For the same molecule, the TGI [47] was under 10 nM, the GI50 [48] was under 10 nM and the TGI [48] was over 100000 nM. The GI50 [49] was under 10 nM, the TGI [49] was 55700 nM and the GI50 [50] was under 10 nM. It also gave a TGI [50] of 90300 nM, a GI50 [51] of under 10 nM and a TGI [51] of under 10 nM. The GI50 [52] was under 10 nM, the TGI [52] was 75500 nM and the GI50 [53] was under 10 nM. For the same molecule, the TGI [53] was under 10 nM.
